Among the data in patent US20230167103A1 (Bayer Aktiengesellschaft, priority 2020, published 2023) are IC50 values, retold here.

For the test, the target named is T1, human DGKζ (Homo sapiens, UniProt Q13574).
T1 construct: made in house; host or cells: Sf9 insect cells, baculovirus
T1 sequence (Q13574 with tags, fused parts or gaps): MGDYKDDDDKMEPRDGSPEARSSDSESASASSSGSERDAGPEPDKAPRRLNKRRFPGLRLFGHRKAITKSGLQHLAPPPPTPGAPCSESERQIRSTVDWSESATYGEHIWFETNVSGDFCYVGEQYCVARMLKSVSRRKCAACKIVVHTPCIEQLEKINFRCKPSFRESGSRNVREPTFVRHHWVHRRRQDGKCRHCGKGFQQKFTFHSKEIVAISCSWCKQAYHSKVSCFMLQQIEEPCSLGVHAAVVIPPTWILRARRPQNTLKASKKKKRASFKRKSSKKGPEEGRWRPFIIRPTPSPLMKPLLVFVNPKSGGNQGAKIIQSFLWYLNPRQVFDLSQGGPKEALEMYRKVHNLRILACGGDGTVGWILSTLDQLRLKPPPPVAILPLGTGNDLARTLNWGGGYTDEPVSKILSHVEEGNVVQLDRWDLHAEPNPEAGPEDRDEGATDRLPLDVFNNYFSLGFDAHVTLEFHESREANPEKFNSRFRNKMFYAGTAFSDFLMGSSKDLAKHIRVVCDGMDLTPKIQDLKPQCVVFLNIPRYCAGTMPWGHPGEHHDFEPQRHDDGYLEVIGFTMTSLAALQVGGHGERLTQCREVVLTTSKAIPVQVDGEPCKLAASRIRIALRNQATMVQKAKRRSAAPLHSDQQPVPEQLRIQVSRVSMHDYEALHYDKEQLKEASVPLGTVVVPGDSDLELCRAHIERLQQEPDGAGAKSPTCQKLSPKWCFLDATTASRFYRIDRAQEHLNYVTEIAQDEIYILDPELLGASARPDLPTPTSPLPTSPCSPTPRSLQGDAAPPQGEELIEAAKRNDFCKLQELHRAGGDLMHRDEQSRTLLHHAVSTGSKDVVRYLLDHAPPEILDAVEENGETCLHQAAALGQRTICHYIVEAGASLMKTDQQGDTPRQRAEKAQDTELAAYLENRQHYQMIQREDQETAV
As to the kind of experiment: Human DGKζ kinase activity inhibition assay (ADP-Glo). In kind it is biochemical. Conditions: example compounds; recombinant full-length human DGKζ, 1,2-dioleoyl-sn-glycerol 7 μM, ATP 55 μM, 20 min at 22° C.; read-out: IC50 values of examples in in vitro human DGKζ kinase activity inhibition assays. Here is the method: Human diacylglycerol kinase zeta (DGKζ) inhibitory activity of compounds of the present invention was quantified employing the human DGKζ kinase activity assay as described in the following paragraphs. In essence, the enzyme activity was measured by quantification of the adenosine-di-phosphate (ADP) generated as a co-product of the enzyme reaction via the “ADP-Glo™ Kinase Assay” kit from the company Promega. This detection system works as follows: In a first step the adenosine-tri-phosphate (ATP) not consumed in the kinase reaction is quantitatively converted to cyclic adenosine-mono-phosphate (cAMP) employing an adenylate cyclase (“ADP-Glo-reagent”), then the adenylate cyclase is stopped and the ADP generated in the kinase reaction is converted to ATP, which subsequently generates in a luciferase-based reaction a glow-luminescence signal (“Kinase Detection Reagent”).
C-terminally FLAG-tagged, recombinant full-length human DGKζ (inhouse expressed in baculovirus infected insect cells, purified using anti-Flag pulldown and size exclusion chromatography) was used as enzyme. As an alternative, commercially available enzyme by Carnabio can be used. As substrate for the kinase, 1,2-dioleoyl-sn-glycerol, reconstituted in octyl-β-D-glucopyranoside micelles, was used. […] Subsequently, 22.55 volumes of a 510 mM solution of octyl-β-D-glucopyranoside (Sigma-Aldrich, Cat. #O8001-10G) in 50 mM MOPS buffer (pH 7.4) were added, and the mixture was sonicated in an ultrasonic bath for 20 s. Then 35 volumes of 50 mM MOPS buffer (pH 7.4) were added to yield a solution of 0.28 mM 1,2 dioleoyl-sn-glycerol and 200 mM octyl-β-D-glucopyranoside, which was aliquoted, flash-frozen in liquid nitrogen, and stored at −20° C. until use.
For the assay 50 nl of a 100-fold concentrated solution of the test compound in dimethyl sulfoxide (DMSO, Sigma) was pipetted into either a white 1536-well or a white low-volume 384-well microtiter plate (both Greiner Bio-One, Frickenhausen, Germany). […] The concentration of DGKζ was adjusted depending of the activity of the enzyme lot and was chosen appropriate to have the assay in the linear range, a typical concentration is about 0.1 nM. The reaction was stopped by the addition of 2.5 μL of “ADP-Glo-reagent” (1 to 1.5 diluted with water) and the resulting mixture was incubated at 22° C. for 1 h to convert the ATP not consumed in the kinase reaction completely to cAMP. Subsequently 2.5 μl of the “kinase detection reagent” (1.2 fold more concentrated than recommended by the producer) were added, the resulting mixture was incubated at 22° C. for 1 h and then the luminescence measured with a suitable measurement instrument (e.g. Viewlux™ from Perkin-Elmer). The amount of emitted light was taken as a measure for the amount of ADP generated and thereby for the activity of the DGKζ.
The data were normalised (enzyme reaction without inhibitor=0% inhibition, all other assay components but no enzyme=100% inhibition).
For orientation: IC50 means the concentration needed to halve the response being measured. As for `CC(C(N)=O)N(c1ccc(F)cc1)c1nc(N)c(C(=O)c2cc(CNC3CCCC3)no2)s1` (racemic) [Example 62, rac-2-(N-[4-amino-5-[3-[(cyclopentylamino)methyl]isoxazole-5-carbonyl]thiazol-2-yl]-4-fluoro-anilino)propanamide], the IC50 was determined as 194 nM.

For `CC(C(N)=O)N(c1ccc(F)cc1)c1nc(N)c(C(=O)c2nc(-c3cccc(F)c3)no2)s1` (racemic) [Example 55, rac-2-(N-[4-amino-5-[3-(3-fluorophenyl)-1,2,4-oxadiazole-5-carbonyl]thiazol-2-yl]-4-fluoro-anilino)propanamide], the IC50 was found to be 17 nM.

In the case of `CC(C(N)=O)N(c1ccc(F)cc1)c1nc(N)c(C(=O)c2cc(C(=O)N[C@H]3C[C@@H](F)C3)no2)s1` (mixture of isomers) [Example 38, 5-[4-amino-2-(N-(2-amino-1-methyl-2-oxo-ethyl)-4-fluoro-anilino)thiazole-5-carbonyl]-N-(cis-3-fluorocyclobutyl)isoxazole-3-carboxamide], the IC50 was 344 nM.

Consider `CC(C(N)=O)N(c1ccc(F)c(F)c1)c1nc(N)c(C(=O)c2cc(C(=O)NC3CC(F)(F)C3)no2)s1` (racemic) [Example 45, rac-5-[4-amino-2-(N-(2-amino-1-methyl-2-oxo-ethyl)-3,4-difluoro-anilino)thiazole-5-carbonyl]-N-(3,3-difluorocyclobutyl)isoxazole-3-carboxamide], for which the IC50 was 53 nM.

With `CC(C(N)=O)N(c1ccc(F)cc1)c1nc(N)c(C(=O)c2cc(CN3CCC(F)(F)C(C)C3)no2)s1` (mixture of isomers) [Example 76, 2-(N-[4-amino-5-[3-[(4,4-difluoro-3-methyl-1-piperidyl)methyl]isoxazole-5-carbonyl]thiazol-2-yl]-4-fluoro-anilino)propanamide], the IC50 was found to be 10 nM.

Take `CC(C(N)=O)N(c1ccc(F)cc1)c1nc(N)c(C(=O)c2cc(C(=O)NCC(F)(F)F)no2)s1` (racemic) [Example 23, rac-5-[4-amino-2-(N-(2-amino-1-methyl-2-oxo-ethyl)-4-fluoro-anilino)thiazole-5-carbonyl]-N-(2,2,2-trifluoroethyl)isoxazole-3-carboxamide]: the IC50 came out at 212 nM.

Turning to `CC(C(N)=O)N(c1ccc(F)c(F)c1)c1nc(N)c(C(=O)c2cc(C(=O)NC3CC(F)(F)C3)no2)s1` (single isomer, unassigned) [Example 45.2, 5-[4-amino-2-(N-(2-amino-1-methyl-2-oxo-ethyl)-3,4-difluoro-anilino)thiazole-5-carbonyl]-N-(3,3-difluorocyclobutyl)isoxazole-3-carboxamide], the IC50 was found to be 1270 nM.

As for `CC(C(N)=O)N(c1ccc(F)cc1)c1nc(N)c(C(=O)c2cc(-c3ccccc3)ns2)s1` (racemic) [Example 50, rac-2-(N-[4-amino-5-(3-phenylisothiazole-5-carbonyl)thiazol-2-yl]-4-fluoro-anilino)propanamide], the IC50 was determined as 409 nM.

`COc1ccc(-c2cc(C(=O)c3sc(N(c4ccc(F)cc4)C(C)C(N)=O)nc3N)on2)cn1` (racemic) [Example 71, rac-2-(N-[4-amino-5-[3-(6-methoxy-3-pyridyl))isoxazole-5-carbonyl]thiazol-2-yl]-4-fluoro-anilino)propanamide]: the IC50 worked out at 96 nM.

Turning to `CC(C(N)=O)N(c1ccc(F)cc1)c1nc(N)c(C(=O)c2cc(CN3CCC(F)(F)CC3)no2)s1` (racemic) [Example 75, rac-2-(N-[4-amino-5-[3-[(4,4-difluoro-1-piperidyl)methyl]isoxazole-5-carbonyl]thiazol-2-yl]-4-fluoro-anilino)propanamide], the IC50 came to 26 nM.

On to `CC(C(N)=O)N(c1ccc(F)cc1)c1nc(N)c(C(=O)c2cc(C(=O)NC3(C)CCC3)no2)s1` (single isomer, unassigned) [Example 30.1, 5-[4-amino-2-(N-(2-amino-1-methyl-2-oxo-ethyl)-4-fluoro-anilino)thiazole-5-carbonyl]-N-(1-methylcyclobutyl)isoxazole-3-carboxamide], for which the IC50 came to 29 nM.

Turning to `CC(C(N)=O)N(c1ccc(F)cc1)c1nc(N)c(C(=O)c2cc(-c3ccccn3)no2)s1` (racemic) [Example 68, rac-2-(N-[4-amino-5-[3-(2-pyridypisoxazole-5-carbonyl]thiazol-2-yl]-4-fluoro-anilino)propanamide], the IC50 turned out to be 402 nM.

For the molecule `CC(C(N)=O)N(c1ccc(F)cc1)c1nc(N)c(C(=O)c2cc(C(=O)Nc3ccccn3)no2)s1` (racemic) [Example 28, rac-5-[4-amino-2-(N-(2-amino-1-methyl-2-oxo-ethyl)-4-fluoro-anilino)thiazole-5-carbonyl]-N-(2-pyridyl)isoxazole-3-carboxamide], the IC50 turned out to be 90 nM.

In the case of `CC(C(N)=O)N(c1ccc(F)cc1)c1nc(N)c(C(=O)c2cc(CN3CCCCC3)no2)s1` (racemic) [Example 63, rac-2-(N-[4-amino-5-[3-(1-piperidylmethyl)isoxazole-5-carbonyl]thiazol-2-yl]-4-fluoro-anilino)propanamide], the IC50 was found to be 88 nM.

Regarding `CC(C(N)=O)N(c1ccc(F)cc1)c1nc(N)c(C(=O)c2cc(COC(=O)Nc3ccccc3)no2)s1` (racemic) [Example 66, rac-[5-[4-amino-2-(N-(2-amino-1-methyl-2-oxo-ethyl)-4-fluoro-anilino)thiazole-5-carbonyl]isoxazol-3-yl]methyl N-phenylcarbamate], the IC50 is 29 nM.

For `CC(C(N)=O)N(c1ccc(F)cc1)c1nc(N)c(C(=O)c2cc(C(=O)NCC3CC3)no2)s1` (racemic) [Example 22, rac-5-[4-amino-2-(N-(2-amino-1-methyl-2-oxo-ethyl)-4-fluoro-anilino)thiazole-5-carbonyl]-N-(cyclopropylmethyl)isoxazole-3-carboxamide], the IC50 was 182 nM.

For the molecule `CC(NC(=O)c1cc(C(=O)c2sc(N(c3ccc(F)cc3)C(C)C(N)=O)nc2N)on1)C(F)F` (racemic) [Example 41, 5-[4-amino-2-(N-(2-amino-1-methyl-2-oxo-ethyl)-4-fluoro-anilino)thiazole-5-carbonyl]-N-(2,2-difluoro-1-methyl-ethyl)isoxazole-3-carboxamide], the IC50 turned out to be 134 nM.

Consider `CC(C(N)=O)N(c1ccc(F)cc1)c1nc(N)c(C(=O)c2cc(CNC3(C)CCCC3)no2)s1` (racemic) [Example 61, rac-2-(Np[4-amino-5-[3-[[(1-methylcyclopentyl)amino]methyl]isoxazole-5-carbonyl]thiazol-2-yl]-4-fluoro-anilino)propanamide], for which the IC50 is 98 nM.

Regarding `CC(C(N)=O)N(c1ccc(F)cc1)c1nc(N)c(C(=O)c2cc(-c3ccc(Cl)cc3)no2)s1` (racemic) [Example 5, rac-2-(N-[4-amino-5-[3-(4-chlorophenyl)isoxazole-5-carbonyl]thiazol-2-yl]-4-fluoro-anilino)propanamide], the IC50 is 67 nM.

On to `CC(C(N)=O)N(c1ccc(F)cc1)c1nc(N)c(C(=O)c2cc(C(=O)NC3CC(F)(F)C3)no2)s1` (single isomer, unassigned) [Example 32.2, 5-[4-amino-2-(N-(2-amino-1-methyl-2-oxo-ethyl)-4-fluoro-anilino)thiazole-5-carbonyl]-N-(3,3-difluorocyclobutyl)isoxazole-3-carboxamide], for which the half-inhibitory concentration (IC50) amounted to 897 nM.

Take `CC(C(N)=O)N(c1ccc(F)cc1)c1nc(N)c(C(=O)c2cc(C(=O)N[C@@H]3C[C@@H]3F)no2)s1` (mixture of isomers) [Example 11, 5-[4-amino-2-(N-(2-amino-1-methyl-2-oxo-ethyl)-4-fluoro-anilino)thiazole-5-carbonyl]-N-[(cis)-2-fluorocyclopropyl]isoxazole-3-carboxamide]: the IC50 was 2360 nM.

For the molecule `CC(C(N)=O)N(c1ccc(F)cc1)c1nc(N)c(C(=O)c2cc(C(=O)NC3CC(F)(F)C3)no2)s1` (single isomer, unassigned) [Example 32.1, 5-[4-amino-2-(N-(2-amino-1-methyl-2-oxo-ethyl)-4-fluoro-anilino)thiazole-5-carbonyl]-N-(3,3-difluorocyclobutyl)isoxazole-3-carboxamide], the IC50 amounted to 31 nM.
